Consider 21 molecules from PubChem BioAssay AID256 (DTP/NCI, 2004).

In this assay the test system is CD2F1 mice, L1210 leukemia ip, survival T/C. Kind of assay: NCI In Vivo Anticancer Drug Screen. Data for tumor model L1210 Leukemia (intraperitoneal) in CD2F1 (CDF1) mice. Conditions: endpoint: mean survival time, higher = longer survival. The essentials: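 Compound-dosed mice with transplantable tumor versus matched vehicle controls; endpoint ratio T/C reported.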

The mark [1] stands for this setting: dose: 100.0 mg/kg/injection, schedule: Q04DX003 (ip), vehicle: saline with Tween-80.
[2] abbreviates: dose: 200.0 mg/kg/injection, schedule: Q04DX003 (ip), vehicle: saline with Tween-80.
The mark [3] stands for this setting: dose: 100.0 mg/kg/injection, schedule: Q01DX009 (ip), vehicle: saline with Tween-80.
Setting [4] is: dose: 200.0 mg/kg/injection, schedule: Q01DX009 (ip), vehicle: saline with Tween-80.
Setting [5] is: dose: 50.0 mg/kg/injection, schedule: Q04DX002 (ip), vehicle: saline with Tween-80.
[6] abbreviates: dose: 100.0 mg/kg/injection, schedule: Q04DX002 (ip), vehicle: saline with Tween-80.
Where [7] appears, read: dose: 100.0 mg/kg/injection, schedule: Q01DX001 (ip), vehicle: saline with Tween-80.
The mark [8] stands for this setting: dose: 200.0 mg/kg/injection, schedule: Q01DX001 (ip), vehicle: saline with Tween-80.
Where [9] appears, read: dose: 400.0 mg/kg/injection, schedule: Q01DX001 (ip), vehicle: saline with Tween-80.
Setting [10] is: dose: 100.0 mg/kg/injection, schedule: Q04DX002 (ip), vehicle: saline.
The mark [11] stands for this setting: dose: 200.0 mg/kg/injection, schedule: Q04DX002 (ip), vehicle: saline.

SMILES strings stand for the structures. Several values for one entry are separate records, joined by “and”; a condition that tells them apart may be missing. Identical values can stand only once. Toxic doses and inconclusive results are not listed.

Take `CC(=O)C1(O)Cc2c(O)c3c(c(O)c2C(OC2CC(N)C(O)C(C)O2)C1)C(=O)c1ccccc1C3=O` (configuration not stated): the T/C (dose: 0.03 mg/kg/injection, schedule: Q01DX009 (ip), vehicle: water) is 104 % of control; the T/C (dose: 0.05 mg/kg/injection, schedule: Q01DX009 (ip), vehicle: water) is 110 % of control; the T/C (dose: 0.1 mg/kg/injection, schedule: Q01DX009 (ip), vehicle: water) is 117 % of control; the T/C (dose: 0.4 mg/kg/injection, schedule: Q01DX009 (ip), vehicle: water) was 151 % of control; the T/C (dose: 0.8 mg/kg/injection, schedule: Q01DX009 (ip), vehicle: water) was 92 % of control.
Turning to `Cn1c(=O)[nH]c2c(nc(-c3ccc(Cl)cc3)n2C)c1=O`, the T/C is, setting by setting: (dose: 12.5 mg/kg/injection, schedule: Q01DX005 (ip), vehicle: other) 91 % of control; (dose: 25.0 mg/kg/injection, schedule: Q01DX005 (ip), vehicle: other) 100 % of control; (dose: 50.0 mg/kg/injection, schedule: Q01DX005 (ip), vehicle: other) 95 % of control; (dose: 100.0 mg/kg/injection, schedule: Q01DX005 (ip), vehicle: other) 95 % of control; (dose: 200.0 mg/kg/injection, schedule: Q01DX005 (ip), vehicle: other) 100 % of control.
As for `c1ccc(NC2=NCCO2)cc1`, the T/C under setting [1] is 93 % of control and the T/C under setting [2] was 98 % of control.
On to `NC(CCC(=O)Nc1cccc2ccccc12)C(=O)O` (configuration not stated), for which the T/C reads like this: (dose: 50.0 mg/kg/injection, schedule: Q01DX009 (ip), vehicle: saline with Tween-80) 98 % of control; under setting [3], 107 % of control; under setting [4], 104 % of control.
On to `CCOC(=O)C1=C(C)NC(C)=C(C(=O)OCC)C1c1ccccc1Cl`, for which the T/C is, setting by setting: (dose: 12.5 mg/kg/injection, schedule: Q01DX009 (ip), vehicle: acetone) 102 % of control; (dose: 25.0 mg/kg/injection, schedule: Q01DX009 (ip), vehicle: acetone) 100 % of control; (dose: 50.0 mg/kg/injection, schedule: Q01DX009 (ip), vehicle: acetone) 104 % of control.
Take `CCCCC/C(C)=N\O`: the T/C (dose: 50.0 mg/kg/injection, schedule: Q01DX009 (ip), vehicle: saline) was 98 % of control; the T/C (dose: 100.0 mg/kg/injection, schedule: Q01DX001 (ip), vehicle: saline) is 104 % of control; the T/C (dose: 100.0 mg/kg/injection, schedule: Q01DX009 (ip), vehicle: saline) is 98 % of control; the T/C under setting [1] is 103 % of control; the T/C (dose: 200.0 mg/kg/injection, schedule: Q01DX001 (ip), vehicle: saline) was 95 % of control; the T/C (dose: 200.0 mg/kg/injection, schedule: Q01DX009 (ip), vehicle: saline) is 101 % of control. For the same molecule, the T/C was 97 % of control under setting [2] and 98 % of control (dose: 400.0 mg/kg/injection, schedule: Q01DX001 (ip), vehicle: saline).
For the molecule `CCCCC(CSC#N)SC#N` (configuration not stated), the T/C (dose: 6.25 mg/kg/injection, schedule: Q04DX002 (ip), vehicle: saline with Tween-80) was 92 % of control and the T/C (dose: 12.5 mg/kg/injection, schedule: Q04DX002 (ip), vehicle: saline with Tween-80) is 88 % of control.
For the molecule `CCOC(=O)c1c(C)oc2cc3c(C(=O)OCC)c(C)oc3cc12`, the T/C is 90 % of control (dose: 100.0 mg/kg/injection, schedule: Q01DX001 (ip), vehicle: Klucel (hydroxypropylcellulose) (HPC)); 95 % of control (dose: 200.0 mg/kg/injection, schedule: Q01DX001 (ip), vehicle: Klucel (hydroxypropylcellulose) (HPC)); 93 % of control (dose: 400.0 mg/kg/injection, schedule: Q01DX001 (ip), vehicle: Klucel (hydroxypropylcellulose) (HPC)).
Take `CS(=O)(=O)Oc1ccccc1OS(C)(=O)=O`: the T/C runs as follows: under setting [5], 113 % of control; under setting [6], 113 % of control; (dose: 200.0 mg/kg/injection, schedule: Q04DX002 (ip), vehicle: saline with Tween-80) 101 % of control.
Turning to `CCN(CC)C(=O)C(C)C1CCC2C3CC=C4CC(OC(=O)c5cc([N+](=O)[O-])cc([N+](=O)[O-])c5)CCC4(C)C3CCC12C` (configuration not stated), the T/C was 94 % of control under setting [7], 94 % of control under setting [8] and 98 % of control under setting [9].
With `Nc1cccc(CCc2ccc(-c3nc4ncnc(N)c4[nH]3)cc2)c1`, the T/C by setting is: under setting [7], 86 % of control; under setting [8], 88 % of control; under setting [9], 93 % of control.
As for `COc1cc[n+](C)cc1`, the T/C runs as follows: under setting [10], 100 % of control; under setting [11], 91 % of control; (dose: 400.0 mg/kg/injection, schedule: Q04DX002 (ip), vehicle: saline) 95 % of control.
Regarding `CC(NC(=O)CCl)C(=O)O` (configuration not stated), the T/C (dose: 100.0 mg/kg/injection, schedule: Q04DX003 (ip), vehicle: saline) was 94 % of control and the T/C (dose: 200.0 mg/kg/injection, schedule: Q04DX003 (ip), vehicle: saline) is 100 % of control.
For `O=S(CCCCO)c1ccccc1` (configuration not stated), the T/C is 101 % of control (dose: 50.0 mg/kg/injection, schedule: Q04DX002 (ip), vehicle: saline); 104 % of control under setting [10]; 96 % of control under setting [11].
For the molecule `C=CCOc1c(C(=O)OCC)cnc2c1cnn2CC`, the T/C was 108 % of control (dose: 100.0 mg/kg/injection, schedule: Q04DX003 (ip), vehicle: Klucel (hydroxypropylcellulose) (HPC)); 108 % of control (dose: 200.0 mg/kg/injection, schedule: Q04DX003 (ip), vehicle: Klucel (hydroxypropylcellulose) (HPC)); 101 % of control (dose: 400.0 mg/kg/injection, schedule: Q04DX003 (ip), vehicle: Klucel (hydroxypropylcellulose) (HPC)).
Take `CC(CC(C)O)=NCCN=C(C)CC(C)O.[Ni]` (configuration not stated): the T/C (dose: 1.5 mg/kg/injection, schedule: Q01DX009 (ip), vehicle: saline with Tween-80) is 103 % of control; the T/C (dose: 3.0 mg/kg/injection, schedule: Q01DX009 (ip), vehicle: saline with Tween-80) is 101 % of control; the T/C (dose: 6.0 mg/kg/injection, schedule: Q01DX009 (ip), vehicle: saline with Tween-80) is 105 % of control; the T/C (dose: 12.5 mg/kg/injection, schedule: Q01DX001 (ip), vehicle: saline) was 102 % of control; the T/C (dose: 25.0 mg/kg/injection, schedule: Q01DX001 (ip), vehicle: saline) was 112 % of control.
As for `CC(C)CCCC(C)C1CCC2C3=CCC4CC(OC(=O)CCC(C)C)CCC4(C)C3CCC21C` (configuration not stated), the T/C is, setting by setting: under setting [1], 101 % of control; under setting [2], 96 % of control; (dose: 400.0 mg/kg/injection, schedule: Q04DX003 (ip), vehicle: saline with Tween-80) 104 % of control.
As to `CCOC(=O)CC(=O)c1c(C)cc(C)cc1C`, the T/C is 89 % of control under setting [3]; 96 % of control under setting [4]; 107 % of control (dose: 400.0 mg/kg/injection, schedule: Q01DX009 (ip), vehicle: saline with Tween-80).
With `CCC(=O)OC1(c2ccccc2)CCN(CCCc2ccccc2Cl)CC1`, the T/C by setting is: (dose: 25.0 mg/kg/injection, schedule: Q01DX001 (ip), vehicle: saline with Tween-80) 108 % of control; (dose: 25.0 mg/kg/injection, schedule: Q04DX002 (ip), vehicle: saline with Tween-80) 95 % of control; (dose: 50.0 mg/kg/injection, schedule: Q01DX001 (ip), vehicle: saline with Tween-80) 100 % of control; under setting [5], 98 % of control; under setting [7], 96 % of control and 98 % of control; under setting [6], 95 % of control.
As to `CCC1(C)CCC2C(=CCC3C(C)(C(=O)OC)CCCC23C)C1` (configuration not stated), the T/C was 94 % of control under setting [7], 92 % of control under setting [8] and 94 % of control under setting [9].
For the molecule `C[n+]1c(-c2cccc(-c3ccccc3)c2)c2cc([N+](=O)[O-])ccc2c2ccccc21`, the T/C runs as follows: (dose: 1.56 mg/kg/injection, schedule: Q01DX009 (ip), vehicle: Klucel (hydroxypropylcellulose) (HPC)) 93 % of control; (dose: 3.13 mg/kg/injection, schedule: Q01DX009 (ip), vehicle: Klucel (hydroxypropylcellulose) (HPC)) 94 % of control; (dose: 6.25 mg/kg/injection, schedule: Q01DX009 (ip), vehicle: Klucel (hydroxypropylcellulose) (HPC)) 98 % of control; (dose: 12.5 mg/kg/injection, schedule: Q01DX009 (ip), vehicle: Klucel (hydroxypropylcellulose) (HPC)) 92 % of control; (dose: 25.0 mg/kg/injection, schedule: Q01DX009 (ip), vehicle: Klucel (hydroxypropylcellulose) (HPC)) 96 % of control; (dose: 25.0 mg/kg/injection, schedule: Q01DX009 (ip), vehicle: water) 97 % of control.
